Source: the NIST ThermoML archive (doi:10.1016/j.fluid.2015.08.029)
Numbers after ± are expanded uncertainties.

Assay: xn = mol fraction of the nth substance listed
Conditions: Buoyancy - hydrostatic balance with magnetic suspension - one sinker, x2 = 0.95

Question: For `C` [methane] + O=C=O, which mass density (300.07 K, 7972.2 kPa, Fluid (supercritical or subcritical phases)) is on record?
Answer: 556.595 ± 4.8 kg/m3

Question: And the mass density (300.14 K, 8371 kPa, Fluid (supercritical or subcritical phases))?
Answer: 616.06 ± 2.2 kg/m3

Question: And the mass density (300.14 K, 8570.3 kPa, Fluid (supercritical or subcritical phases))?
Answer: 633.917 ± 1.8 kg/m3

Question: What about the mass density (300.15 K, 8770.2 kPa, Fluid (supercritical or subcritical phases)) of the same compound?
Answer: 648.153 ± 1.5 kg/m3

Question: What about the mass density (300.15 K, 8969.4 kPa, Fluid (supercritical or subcritical phases)) of the same compound?
Answer: 660.072 ± 1.4 kg/m3

Question: And the mass density (300.15 K, 9169.7 kPa, Fluid (supercritical or subcritical phases))?
Answer: 670.371 ± 1.3 kg/m3

Question: What about the mass density (300.15 K, 9370.4 kPa, Fluid (supercritical or subcritical phases)) of the same compound?
Answer: 679.432 ± 1.2 kg/m3

Question: What about the mass density (300.15 K, 9569.6 kPa, Fluid (supercritical or subcritical phases)) of the same compound?
Answer: 687.435 ± 1.1 kg/m3

Question: What about the mass density (300.15 K, 9968.4 kPa, Fluid (supercritical or subcritical phases)) of the same compound?
Answer: 701.498 ± 1 kg/m3

Question: What about the mass density (300.16 K, 9768.4 kPa, Fluid (supercritical or subcritical phases)) of the same compound?
Answer: 694.681 ± 1 kg/m3

Question: And the mass density (300.17 K, 8169.8 kPa, Fluid (supercritical or subcritical phases))?
Answer: 590.047 ± 2.9 kg/m3

Question: And the mass density (301.07 K, 7972.4 kPa, Fluid (supercritical or subcritical phases))?
Answer: 491.013 ± 5.4 kg/m3

Question: What about the mass density (301.08 K, 7573.6 kPa, Liquid) of the same compound?
Answer: 317.651 ± 2.7 kg/m3

Question: What about the mass density (301.11 K, 7972.7 kPa, Liquid) of the same compound?
Answer: 489.743 ± 1.1 kg/m3

Question: What about the mass density (301.11 K, 8970.7 kPa, Liquid) of the same compound?
Answer: 641.991 ± 1.2 kg/m3

Question: What about the mass density (301.13 K, 6976 kPa, Gas) of the same compound?
Answer: 227.803 ± 0.27 kg/m3

Question: And the mass density (301.13 K, 7872.3 kPa, Liquid)?
Answer: 446.609 ± 5.7 kg/m3

Question: And the mass density (301.14 K, 4003.5 kPa, Gas)?
Answer: 86.6567 ± 0.21 kg/m3

Question: What about the mass density (301.14 K, 5978.2 kPa, Gas) of the same compound?
Answer: 160.13 ± 0.2 kg/m3

Question: And the mass density (301.14 K, 7972.1 kPa, Liquid)?
Answer: 486.831 ± 5.6 kg/m3

Question: And the mass density (301.14 K, 8170.1 kPa, Liquid)?
Answer: 548.746 ± 4.2 kg/m3

Question: And the mass density (301.14 K, 8371.5 kPa, Fluid (supercritical or subcritical phases))?
Answer: 585.039 ± 2.7 kg/m3

Question: What about the mass density (301.14 K, 8570.7 kPa, Fluid (supercritical or subcritical phases)) of the same compound?
Answer: 609.188 ± 2.1 kg/m3

Question: What about the mass density (301.14 K, 9969.4 kPa, Liquid) of the same compound?
Answer: 689.045 ± 0.53 kg/m3

Question: And the mass density (301.14 K, 10967 kPa, Liquid)?
Answer: 718.917 ± 0.54 kg/m3

Question: What about the mass density (301.14 K, 11966 kPa, Liquid) of the same compound?
Answer: 741.154 ± 0.54 kg/m3

Question: What about the mass density (301.15 K, 1990.5 kPa, Gas) of the same compound?
Answer: 37.5288 ± 0.13 kg/m3

Question: And the mass density (301.15 K, 2980.5 kPa, Gas)?
Answer: 59.7905 ± 0.17 kg/m3

Question: What about the mass density (301.15 K, 4979.8 kPa, Gas) of the same compound?
Answer: 117.931 ± 0.27 kg/m3

Question: And the mass density (301.15 K, 7772.9 kPa, Liquid)?
Answer: 394.053 ± 5.1 kg/m3

Question: And the mass density (301.15 K, 8071.6 kPa, Liquid)?
Answer: 522.073 ± 5 kg/m3

Question: And the mass density (301.15 K, 8271.7 kPa, Liquid)?
Answer: 569.213 ± 3.7 kg/m3

Question: What about the mass density (301.15 K, 8770.5 kPa, Fluid (supercritical or subcritical phases)) of the same compound?
Answer: 627.154 ± 1.7 kg/m3

Question: And the mass density (301.15 K, 8970.7 kPa, Fluid (supercritical or subcritical phases))?
Answer: 641.721 ± 1.5 kg/m3

Question: And the mass density (301.15 K, 9370.6 kPa, Fluid (supercritical or subcritical phases))?
Answer: 664.364 ± 1.3 kg/m3

Question: What about the mass density (301.15 K, 9568.5 kPa, Fluid (supercritical or subcritical phases)) of the same compound?
Answer: 673.475 ± 1.2 kg/m3

Question: And the mass density (301.15 K, 9768.6 kPa, Fluid (supercritical or subcritical phases))?
Answer: 681.815 ± 1.1 kg/m3

Question: And the mass density (301.15 K, 9968.2 kPa, Fluid (supercritical or subcritical phases))?
Answer: 689.247 ± 1 kg/m3

Question: What about the mass density (301.16 K, 7673.5 kPa, Liquid) of the same compound?
Answer: 347.909 ± 4 kg/m3

Question: What about the mass density (301.16 K, 9169.7 kPa, Fluid (supercritical or subcritical phases)) of the same compound?
Answer: 653.715 ± 1.4 kg/m3

Question: What about the mass density (301.17 K, 8170.5 kPa, Fluid (supercritical or subcritical phases)) of the same compound?
Answer: 547.088 ± 3.9 kg/m3

Question: And the mass density (302.07 K, 7971.5 kPa, Fluid (supercritical or subcritical phases))?
Answer: 416.856 ± 4.9 kg/m3

Question: And the mass density (302.09 K, 7574.3 kPa, Liquid)?
Answer: 293.998 ± 2.2 kg/m3

Question: What about the mass density (302.14 K, 7873.7 kPa, Liquid) of the same compound?
Answer: 376.389 ± 5.4 kg/m3

Question: What about the mass density (302.14 K, 8073.1 kPa, Liquid) of the same compound?
Answer: 455.2 ± 5.5 kg/m3

Question: And the mass density (302.14 K, 8171.5 kPa, Liquid)?
Answer: 491.43 ± 4.8 kg/m3

Question: And the mass density (302.14 K, 8273.3 kPa, Liquid)?
Answer: 521.984 ± 4 kg/m3

Question: What about the mass density (302.15 K, 7774.4 kPa, Liquid) of the same compound?
Answer: 340.924 ± 4.2 kg/m3

Question: What about the mass density (302.15 K, 7973.5 kPa, Liquid) of the same compound?
Answer: 414.824 ± 5.7 kg/m3

Question: What about the mass density (302.15 K, 8570 kPa, Fluid (supercritical or subcritical phases)) of the same compound?
Answer: 578.598 ± 2.4 kg/m3

Question: And the mass density (302.15 K, 8769.9 kPa, Fluid (supercritical or subcritical phases))?
Answer: 602.454 ± 1.9 kg/m3

Question: What about the mass density (302.15 K, 8969.1 kPa, Fluid (supercritical or subcritical phases)) of the same compound?
Answer: 620.555 ± 1.6 kg/m3

Question: And the mass density (302.15 K, 9168.8 kPa, Fluid (supercritical or subcritical phases))?
Answer: 635.22 ± 1.4 kg/m3

Question: What about the mass density (302.15 K, 9369 kPa, Fluid (supercritical or subcritical phases)) of the same compound?
Answer: 647.538 ± 1.3 kg/m3

Question: And the mass density (302.16 K, 7674.4 kPa, Liquid)?
Answer: 312.96 ± 3.1 kg/m3

Question: What about the mass density (302.16 K, 8169.9 kPa, Fluid (supercritical or subcritical phases)) of the same compound?
Answer: 489.715 ± 4.5 kg/m3

Question: What about the mass density (302.16 K, 8371.1 kPa, Fluid (supercritical or subcritical phases)) of the same compound?
Answer: 543.85 ± 3.3 kg/m3

Question: What about the mass density (302.16 K, 9568.3 kPa, Fluid (supercritical or subcritical phases)) of the same compound?
Answer: 658.091 ± 1.2 kg/m3

Question: What about the mass density (302.16 K, 9768.3 kPa, Fluid (supercritical or subcritical phases)) of the same compound?
Answer: 667.497 ± 1.1 kg/m3

Question: And the mass density (302.16 K, 9970.6 kPa, Fluid (supercritical or subcritical phases))?
Answer: 676.016 ± 1.1 kg/m3

Question: What about the mass density (303.08 K, 7971 kPa, Fluid (supercritical or subcritical phases)) of the same compound?
Answer: 368.276 ± 3.8 kg/m3

Question: What about the mass density (303.15 K, 8169 kPa, Fluid (supercritical or subcritical phases)) of the same compound?
Answer: 434.951 ± 4.6 kg/m3

Question: What about the mass density (303.15 K, 8369.8 kPa, Fluid (supercritical or subcritical phases)) of the same compound?
Answer: 500.535 ± 4.1 kg/m3

Question: What about the mass density (303.15 K, 8569.4 kPa, Fluid (supercritical or subcritical phases)) of the same compound?
Answer: 546.267 ± 3.2 kg/m3

Question: What about the mass density (303.15 K, 8770.2 kPa, Fluid (supercritical or subcritical phases)) of the same compound?
Answer: 577.054 ± 2.5 kg/m3

Question: What about the mass density (303.16 K, 9168.7 kPa, Fluid (supercritical or subcritical phases)) of the same compound?
Answer: 616.875 ± 1.7 kg/m3

Question: What about the mass density (303.16 K, 9368.4 kPa, Fluid (supercritical or subcritical phases)) of the same compound?
Answer: 631.164 ± 1.5 kg/m3

Question: What about the mass density (303.16 K, 9567.7 kPa, Fluid (supercritical or subcritical phases)) of the same compound?
Answer: 643.384 ± 1.4 kg/m3

Question: And the mass density (303.16 K, 9967.1 kPa, Fluid (supercritical or subcritical phases))?
Answer: 663.476 ± 1.2 kg/m3

Question: And the mass density (303.17 K, 8969.3 kPa, Fluid (supercritical or subcritical phases))?
Answer: 598.947 ± 2 kg/m3

Question: What about the mass density (303.17 K, 9768 kPa, Fluid (supercritical or subcritical phases)) of the same compound?
Answer: 653.938 ± 1.3 kg/m3

Question: What about the mass density (304.1 K, 7971.1 kPa, Fluid (supercritical or subcritical phases)) of the same compound?
Answer: 329.354 ± 2.6 kg/m3

Question: And the mass density (304.14 K, 8569.2 kPa, Fluid (supercritical or subcritical phases))?
Answer: 496.33 ± 3.8 kg/m3

Question: And the mass density (304.14 K, 8968.4 kPa, Fluid (supercritical or subcritical phases))?
Answer: 567.739 ± 2.5 kg/m3

Question: What about the mass density (304.15 K, 8769.3 kPa, Fluid (supercritical or subcritical phases)) of the same compound?
Answer: 537.629 ± 3 kg/m3

Question: What about the mass density (304.15 K, 9169.5 kPa, Fluid (supercritical or subcritical phases)) of the same compound?
Answer: 590.204 ± 2 kg/m3

Question: And the mass density (304.15 K, 9567.9 kPa, Fluid (supercritical or subcritical phases))?
Answer: 622.735 ± 1.6 kg/m3

Question: And the mass density (304.16 K, 8171.5 kPa, Fluid (supercritical or subcritical phases))?
Answer: 378.227 ± 3.7 kg/m3

Question: And the mass density (304.16 K, 9973.8 kPa, Fluid (supercritical or subcritical phases))?
Answer: 646.365 ± 1.3 kg/m3

Question: What about the mass density (304.17 K, 8370 kPa, Fluid (supercritical or subcritical phases)) of the same compound?
Answer: 438.794 ± 4.3 kg/m3

Question: What about the mass density (304.17 K, 9370.7 kPa, Fluid (supercritical or subcritical phases)) of the same compound?
Answer: 607.811 ± 1.8 kg/m3

Question: And the mass density (304.17 K, 9767.3 kPa, Fluid (supercritical or subcritical phases))?
Answer: 634.947 ± 1.4 kg/m3

Question: What about the mass density (305.11 K, 7971.7 kPa, Fluid (supercritical or subcritical phases)) of the same compound?
Answer: 307.661 ± 1.8 kg/m3

Question: And the mass density (305.15 K, 8371 kPa, Fluid (supercritical or subcritical phases))?
Answer: 394.247 ± 3.3 kg/m3

Question: What about the mass density (305.15 K, 8569.8 kPa, Fluid (supercritical or subcritical phases)) of the same compound?
Answer: 449.045 ± 3.6 kg/m3

Question: What about the mass density (305.15 K, 8769.4 kPa, Fluid (supercritical or subcritical phases)) of the same compound?
Answer: 497.809 ± 3.2 kg/m3

Question: What about the mass density (305.15 K, 8968.6 kPa, Fluid (supercritical or subcritical phases)) of the same compound?
Answer: 535.323 ± 2.7 kg/m3

Question: What about the mass density (305.15 K, 9168.3 kPa, Fluid (supercritical or subcritical phases)) of the same compound?
Answer: 563.28 ± 2.2 kg/m3

Question: And the mass density (305.15 K, 9568.1 kPa, Fluid (supercritical or subcritical phases))?
Answer: 602.629 ± 1.6 kg/m3

Question: And the mass density (305.16 K, 8169.9 kPa, Fluid (supercritical or subcritical phases))?
Answer: 344.406 ± 2.5 kg/m3
